Consider 4 compounds from US10973778B2, “Using edible carriers to produce Curcuma extracts for oral and topical use” (California Northstate College of Pharmacy, LLC, priority 2012, dated 2021).

The nature of the series: UV absorption spectra of sunscreen agents and Curcuma longa L. extract. In kind it is physicochemical. Conditions: absorption spectrum in methanol; for wavelength above which absorption is low / very low: octocrylene 0.5 ug/ml, avobenzone 5 ug/ml (FIGS. 1B, 1E); for wavelength above which absorption is practically zero / practically no absorption: 0.5-20 ug/ml depending on agent (FIGS. 1A-1D). The source says: FIGS. 1A-1F compare the absorption spectra of representative current state-of-the-art sunscreen agents to the absorption spectra of Curcuma longa L., according to some embodiments.
The representative sunscreen agents show peaks in the absorption spectrum between the wavelengths of 290 nm to 400 nm which is the range of interest. Ideally, a desired agent would absorb energy across the entire range of 290 nm to 400 nm. In FIGS. 1A-1E, for example, a variety of peak positions are seen in the representative agents, where a high (desirable) absorption can be shown at the wavelength of the peak but there is usually a low or zero absorption at the trough, which is, of course, undesirable. Even combinations of sunscreen agents with peaks and troughs may leave areas within the wavelength range that are not covered, leaving wavelengths for which there is little or no UV protection, an undesirable situation.

Take `COc1ccc(C(=O)CC(=O)c2ccc(C(C)(C)C)cc2)cc1` [avobenzone]: the “wavelength above which absorption is low / very low” value is “about 390 nm”.

Take `CC1CC(OC(=O)c2ccccc2O)CC(C)(C)C1` (centres unmarked) [homosalate]: the “wavelength above which absorption is practically zero / practically no absorption” value is given as “about 340 nm”.

For `CCCCC(CC)COC(=O)C(C#N)=C(c1ccccc1)c1ccccc1` (centres unmarked) [octocrylene], the “wavelength above which absorption is practically zero / practically no absorption” value was “about 380 nm” and the “wavelength above which absorption is low / very low” value was “about 370 nm”.

On to `COc1ccc(C(=O)c2ccccc2)c(O)c1` [oxybenzone], for which the “wavelength above which absorption is practically zero / practically no absorption” value is “about 380 nm”.
